B1: brain-derived neurotrophic factor (protein, UniProt P23560 1-247, looked up)
chain: MTILFLTMVISYFGCMKAAPMKEANIRGQGGLAYPGVRTHGTLESVNGPKAGSRGLTSLADTFEHVIEELLDEDQKVRPNEENNKDADLYTSRVMLSSQVPLEPPLLFLLEEYKNYLDAANMSMRVRRHSDPARRGELSVCDSISEWVTAADKKTAVDMSGGTVTVLEKVPVSKGQLKQYFYETKCNPMGYTKEGCRGIDKRHWNSQCRTTQSYVRALTMDSKKRIGWRFIRIDTSCVCTLTIKRGR
modifications: full-length
notes: full-length human BDNF produced recombinantly in Escherichia coli

Experiments:
ERK = ERK phosphorylation, in cell ELISA in differentiated SH-SY5Y cells; format: cell-based, human; settings: for ERK phosphorylation increase vs unstimulated control: 10 min, 150 ng/mL BDNF or 10 μM peptide, three independent replicas in duplicate; for EC50 / maximal effect (Emax) of ERK phosphorylation: dose–response, differentiated SH-SY5Y, two independent replicas in duplicate; for maximal effect (Emax) of ERK phosphorylation: BDNF and d-bdnf not significantly different
Procedure: Figure 1 Activation of the TrkB receptor by BDNF and its mimetic peptide ligands. (A) Schematic picture of the human TrkB receptor fused to the EGFP construct (hTrkB-EGFP); recombinant human mature BDNF (hBDNF); monomeric peptide, m-bdnf; dimeric peptide, d-bdnf; scrambled s-bdnf. (B) WB showing Tyr phosphorylation (p-Tyr, top) and total TrkB levels (bottom) in SH-SY5Y cells transfected with hTrkB-EGFP in the absence (ctrl) or presence of 10 min stimulation with 150 ng/mL BDNF or 10 μM m-bdnf, d-bdnf, or s-bdnf. Samples were immunoprecipitated (IP) with the anti-GFP antibody before WB. The relative density of the bands is reported on the right of the blots, as mean ± SEM of five (BDNF) and four (peptides) independent replicas; each p-Tyr band density was divided for the respective TrkB band and normalized to the ctrl signal (***p < 0.001, *p < 0.05 vs ctrl, according to one-way ANOVA with Bonferroni’s multiple comparison test). (C) Scatter dot plot of ERK (left) and AKT (right) phosphorylation levels detected in differentiated SH-SY5Y cells, after stimulation with the same treatments as in (B). Phosphorylation levels were normalized to the cell number and reported as percentage versus the ctrl. Data ± SD were pooled from three independent replicas performed in duplicate. (D) ERK phosphorylation dose–response curve of BDNF and d-bdnf. Data ± SEM were pooled from two independent replicas performed in duplicate. (E) Intensity image of a TrkB-EGFP transfected cell (scale bar 10 μm). White square defines a region of the image that contains both the cell membrane and the background signal. […] The dashed black lines identify the mean values of B for the monomer and the dimer, as indicated. (G) Bar graph of mean ± SD ‘B-1’ values retrieved from N&B analysis for all the different conditions measured. The horizontal dashed lines indicate the ‘B-1’ average values assigned to the monomer (based on data from f-EGFP) and the dimer. Data (round circles) were pooled from two independent experiments. A one-way ANOVA with Dunnett’s multiple comparisons test was applied to compare data to the f-EGFP reference (*p < 0.05, ***p < 0.001, ****p < 0.0001). […]
(§1) ERK and AKT phosphorylation were assessed in a 96-well plate format, performing an in cell ELISA assay as previously described 4. SH-SY5Y or HEK 293T cells were seeded at a density of 5.000 and 80.000 cell/well in 96 multiwell respectively, and the former were differentiated as describe above.
Cells were treated as described for TrkB phosphorylation or reported in the graphs, then washed with 0.1% Triton X-100 in PBS and fixed with 4% paraformaldehyde. Cells were then permeabilized (1% BSA; 0.1% Triton X-100 in PBS) for 1 hour, at the end, cells were incubated overnight at 4°C with anti-phospho ERK (1:500, sc-7383, Santa Cruz) or phosphor AKT (1:500, sc-16646-R-, Santa Cruz) antibodies. Next day, after the incubation with HRP-conjugated secondary antibody (anti-mouse # 31430, Invitrogen; anti-rabbit A0545, Sigma-Aldrich) the TMB substrate was added and the absorbance was read at 450 nm. Cells were incubated with only the secondary antibody to obtain the aspecific binding (Blanks). The absorbances were normalized to the relative number of cells in each well that was determined using Crystal Violet staining. […]
°C with chicken anti-BDNF (1:100, G164A Promega) antibody diluted in 2.5% BSA/PBS. The next morning samples were incubated with an Alexa568-conjugated anti-chicken secondary antibody (1:500, Thermofisher) in 2.5% BSA/PBS for 2h at room temperature. Coverslips were mounted with Fluoroshield-DAPI (Sigma-Aldrich) and imaged with a laser scanning confocal microscope (Nikon A1, Eclipse Ti), using a 60× oil objective (NA 1 .40) and pinhole set to 1 AU. Images were acquired […]
nm laser (emission window 545-645 nm). BDNF fluorescence intensity was analysed using FIJI ImageJ software. Briefly, the background intensity was subtracted from all red channel fields and an […]

AKT = AKT phosphorylation, in cell ELISA in differentiated SH-SY5Y cells; format: cell-based, human; settings: 10 min; 150 ng/mL BDNF or 10 μM peptide; three independent replicas in duplicate
Procedure: as §1
Cells were treated as described for TrkB phosphorylation or reported in the graphs, then washed with 0.1% Triton X-100 in PBS and fixed with 4% paraformaldehyde. Cells were then permeabilized (1% BSA; 0.1% Triton X-100 in PBS) for 1 hour, at the end, cells were incubated overnight at 4°C with anti-phospho ERK (1:500, sc-7383, Santa Cruz) or phosphor AKT (1:500, sc-16646-R-, Santa Cruz) antibodies. Next day, after the incubation with HRP-conjugated secondary antibody (anti-mouse # 31430, Invitrogen; anti-rabbit A0545, Sigma-Aldrich) the TMB substrate was added and the absorbance was read at 450 nm. Cells were incubated with only the secondary antibody to obtain the aspecific binding (Blanks). The absorbances were normalized to the relative number of cells in each well that was determined using Crystal Violet staining.
SH-SY5Y Immunofluorescence analysis
SH-SY5Y cells were seeded on a 24-well plate (5.000 cell/well) and differentiated with retinoic acid as describe above. Cells were treated for 60’ in an unsupplemented medium with BDNF (150 ng/ml) or d-bdnf (10 µM) alone or in combination. Samples were then fixed (4% PFA, 5% sucrose/PBS, 15 min) and subjected to a non-permeabilizing immunofluorescence assay. Briefly, cells were incubated with the blocking solution (5% BSA/PBS) for 1 h at room temperature and incubated overnight at 4 °C with chicken anti-BDNF (1:100, G164A Promega) antibody diluted in 2.5% BSA/PBS. The next morning samples were incubated with an Alexa568-conjugated anti-chicken secondary antibody (1:500, Thermofisher) in 2.5% BSA/PBS for 2h at room temperature. Coverslips were mounted with Fluoroshield-DAPI (Sigma-Aldrich) and imaged with a laser scanning confocal microscope (Nikon A1, Eclipse Ti), using a 60× oil objective (NA 1 .40) and pinhole set to 1 AU. Images were acquired […]
nm laser (emission window 545-645 nm). BDNF fluorescence intensity was analysed using FIJI ImageJ software. Briefly, the background intensity was subtracted from all red channel fields and an image threshold was applied to calculate the mean fluorescence intensity of the cells only. Results shown constitute the pool of fields stemming from two replicates.
ReNCell cell culture, differentiation and immunofluorescence analysis

Row | Molecule | ERK phosphorylation increase vs unstimulated control (ERK) | AKT phosphorylation increase vs unstimulated control (AKT) | EC50 (ERK) | maximal effect (Emax) of ERK phosphorylation (ERK) | EC50 (ERK; referred to the monomer form)
1 | HSDPARRGELSV-NH2 [m-bdnf, linear peptide fragment encompassing the first 12 amino acids of the mature NT N-terminal] | only BDNF and d-bdnf were able to induce a significant ERK and AKT phosphorylation increase | only BDNF and d-bdnf were able to induce a significant ERK and AKT phosphorylation increase | – | – | –
2 | HSDPARRGELSVC-C-VSLEGRRAPDSH (disulfide) [d-bdnf] | significant ERK and AKT phosphorylation increase | significant ERK and AKT phosphorylation increase | 13.6 ± 3.87 µM | 227.3 ± 6.3 | –
3 | SRAGPHLRDVSE-NH2 [s-bdnf] | only BDNF and d-bdnf were able to induce a significant ERK and AKT phosphorylation increase | only BDNF and d-bdnf were able to induce a significant ERK and AKT phosphorylation increase | – | – | –
4 | B1 | significant ERK and AKT phosphorylation increase | significant ERK and AKT phosphorylation increase | – | 237.1 ± 5.0 | 0.00069 ± 0.00024 µM

From article PMC9732821, “Neurotrophic Activity and Its Modulation by Zinc Ion of a Dimeric Peptide Mimicking the Brain-Derived Neurotrophic Factor N-Terminal Region” (ACS Chemical Neuroscience, 2022)
